Results reported in patent US20130011462A1, “MELT EXTRUDED NICOTINE THIN STRIPS” (Novartis AG, priority 2009, published 2013).
Read-outs that look alike come from different tables or passages of the source.

Experiments:
[1] = Description: During thermo-gravimetric analysis (TGA), the weight of a sample is measured very accurately as the sample is undergoing a temperature program (usually a gradual increase in temperature). Changes in the sample that result in weight differences will be detected, and can be correlated to temperature. This technique was used to investigate the onset temperatures of dehydration and degradation of the nicotine salt.
Table 4 details the temperature program for this study. The sample was heated from 30 to 950° C. under nitrogen (inert gas) or air.

[2] = remark: listed apart in the source
Description: The sample weight was monitored for 20 minutes at probable extrusion temperatures of 50, 55 and 60° C. This duration is longer than expected process time for small batches including hold time in hoppers.

SMILES: CN1CCCC1c1cccnc1.O.O.O=C(O)C(O)C(O)C(=O)O (centres unmarked) [Nicotine bitartrate dihydrate]
- First Event Onset Temperature ([1]; Air purged sample): 73.93 °C
- Second Event Onset Temperature ([1]; Air purged sample): 190.23 °C
- First Event Onset Temperature ([1]; Nitrogen purged sample): 72.54 °C
- Second Event Onset Temperature ([1]; Nitrogen purged sample): 190.78 °C
- first TGA event inflection ([1]; scan 30 to 950 °C): 82 °C
- first TGA event onset ([1]; scan 30 to 950 °C): 73 °C
- second TGA event inflection ([1]; scan 30 to 950 °C): 203 °C
- weight loss, first TGA event ([1]; scan 30 to 950 °C): about 4%
- weight loss after isothermal hold ([2]; 20 minute hold at 50 °C): 0.497%
- weight loss after isothermal hold ([2]; 20 minute hold at 55 °C): 0.678%
- weight loss after isothermal hold ([2]; 20 minute hold at 60 °C): 1.147%
